According to ChEMBL document CHEMBL5625167, “In vitro bioevaluation and docking study of dihydrosphingosine and ethambutol analogues against sensitive and multi-drug resistant Mycobacterium tuberculosis” (Eur J Med Chem, 2023):
≈ marks a conversion by molar mass, not a printed value. Where “and” joins values, the source holds several entries; their conditions need not be identical. Equal entries are not always repeated.

Experiments:
Format in all cases: functional
[1] = system: Mycobacterium tuberculosis; assay: Antimycobacterial activity against pre-extensively drug resistant Mycobacterium tuberculosis 1576 assessed as reduction in CFU count at 8 uM measured after 12 days relative to control; parameters: scale not given: the % may be the effect or the level left; details: time 12 day
[2] = system: Mycobacterium tuberculosis; assay: Additive antimycobacterial activity against pre-extensively drug resistant Mycobacterium tuberculosis 1576 incubated for 7 days by resazurin dye based two-dimensional micro dilution checkerboard assay in presence of isoniazid; details: time 7 day
[3] = system: Mycobacterium tuberculosis; assay: Additive antimycobacterial activity against pre-extensively drug resistant Mycobacterium tuberculosis 1576 incubated for 7 days by resazurin dye based two-dimensional micro dilution checkerboard assay in presence of ethambutol; details: time 7 day
[4] = system: Mycobacterium tuberculosis; assay: Additive antimycobacterial activity against pre-extensively drug resistant Mycobacterium tuberculosis 1576 incubated for 7 days by resazurin dye based two-dimensional micro dilution checkerboard assay in presence of levofloxacin; details: time 7 day
[5] = system: Mycobacterium tuberculosis; assay: Additive antimycobacterial activity against pre-extensively drug resistant Mycobacterium tuberculosis 1576 incubated for 7 days by resazurin dye based two-dimensional micro dilution checkerboard assay in presence of amikacin; details: time 7 day
[6] = system: Mycobacterium tuberculosis; assay: Synergistic antimycobacterial activity against pre-extensively drug resistant Mycobacterium tuberculosis 1576 incubated for 7 days by resazurin dye based two-dimensional micro dilution checkerboard assay in presence of rifampicin; details: time 7 day
[7] = system: Mycobacterium tuberculosis; assay: (§1) Synergistic antimycobacterial activity against pre-extensively drug resistant Mycobacterium tuberculosis 1576 assessed as fractional inhibitory concentration index incubated for 7 days by resazurin dye based two-dimensional micro dilution checkerboard assay in presence of rifampicin; details: time 7 day
[8] = system: Mycobacterium tuberculosis; assay: Additive antimycobacterial activity against pre-extensively drug resistant Mycobacterium tuberculosis 1576 assessed as fractional inhibitory concentration index incubated for 7 days by resazurin dye based two-dimensional micro dilution checkerboard assay in presence of levofloxacin; details: time 7 day
[9] = system: Mycobacterium tuberculosis; assay: Additive antimycobacterial activity against pre-extensively drug resistant Mycobacterium tuberculosis 1576 assessed as fractional inhibitory concentration index incubated for 7 days by resazurin dye based two-dimensional micro dilution checkerboard assay in presence of ethambutol; details: time 7 day
[10] = system: Mycobacterium tuberculosis; assay: Additive antimycobacterial activity against pre-extensively drug resistant Mycobacterium tuberculosis 1576 assessed as fractional inhibitory concentration index incubated for 7 days by resazurin dye based two-dimensional micro dilution checkerboard assay in presence of amikacin; details: time 7 day
[11] = system: Mycobacterium tuberculosis; assay: Antimycobacterial activity against isoniazid, rifampicin, ethambutol, streptomycin and levofloxacin resistant Mycobacterium tuberculosis clinical isolate 1576 incubated for 7 days by resazurin dye based colorimetric method analysis; details: Mycobacterium tuberculosis, 1576, 168 h; time 7 day
[12] = system: Mycobacterium tuberculosis; assay: Antimycobacterial activity against pre-extensively drug resistant Mycobacterium tuberculosis 1576 assessed as reduction in CFU count at 8 uM in presence of rifampicin measured after 12 days relative to control; parameters: scale not given: the % may be the effect or the level left; details: time 12 day
[13] = system: Mycobacterium tuberculosis; assay: as §1, with “reduction in” for “fractional inhibitory”, “required to inhibit bacterial growth” for “index”, “rifampicin relative to control” for “rifampicin”; parameters: scale not given: the % may be the effect or the level left; details: time 7 day
[14] = system: Mycobacterium tuberculosis; assay: Additive antimycobacterial activity against pre-extensively drug resistant Mycobacterium tuberculosis 1576 assessed as fractional inhibitory concentration index incubated for 7 days by resazurin dye based two-dimensional micro dilution checkerboard assay in presence of isoniazid; details: time 7 day
[15] = system: Mycobacterium tuberculosis; assay: Additive antimycobacterial activity against pre-extensively drug resistant Mycobacterium tuberculosis 1576 assessed as fractional inhibitory concentration index incubated for 48 hrs by micro dilution checkerboard assay in presence of rifampicin
[16] = system: Mycobacterium tuberculosis; assay: Antimycobacterial activity against pre-extensively drug resistant Mycobacterium tuberculosis 1576 incubated for 7 days by resazurin dye based two-dimensional micro dilution checkerboard assay in presence of rifampicin; details: time 7 day
[17] = system: Mycobacterium tuberculosis; assay: Antimycobacterial activity against pre-extensively drug resistant Mycobacterium tuberculosis 1576 assessed as fractional inhibitory concentration index incubated for 7 days by resazurin dye based two-dimensional micro dilution checkerboard assay in presence of rifampicin; details: time 7 day
[18] = system: Mycobacterium tuberculosis; assay: Antimycobacterial activity against pre-extensively drug resistant Mycobacterium tuberculosis 1576 incubated for 7 days by resazurin dye based two-dimensional micro dilution checkerboard assay in presence of 1-((3,4,5-trimethoxybenzyl)oxy)heptadecan-2-amine; details: time 7 day
[19] = system: Mycobacterium tuberculosis; assay: Antimycobacterial activity against pre-extensively drug resistant Mycobacterium tuberculosis 1576 incubated for 7 days by resazurin dye based two-dimensional micro dilution checkerboard assay in presence of 1-(benzyloxy)heptadecan-2-amine; details: time 7 day
[20] = system: Mycobacterium tuberculosis; assay: Antimycobacterial activity against pre-extensively drug resistant Mycobacterium tuberculosis 1576 incubated for 7 days by resazurin dye based two-dimensional micro dilution checkerboard assay in presence of 2-aminoheptadecan-1-ol; details: time 7 day

In the case of CCCCCCCCCCCCCCCC(N)COCc1cc(OC)c(OC)c(OC)c1 (stereo unspecified), the Activity [1] is reported as greater than 99.9%, the FIC [2] is reported as 0.5 and the FIC [3] is reported as 0.5. For the same compound, the FIC [4] was 0.5, the FIC [5] was 0.5 and the FIC [6] was 0.25. The “fractional inhibitory concentration index (FICI)” value [7] was 0.5, the “fractional inhibitory concentration index (FICI)” value [8] was 1 and the “fractional inhibitory concentration index (FICI)” value [9] was 0.75. The “fractional inhibitory concentration index (FICI)” value [10] was 0.75, the MIC [11] was 8 µM (≈ 3.61 µg/mL) and the Activity [12] was “>=99.9%”. For the same compound, the Activity [13] was 75% and the “fractional inhibitory concentration index (FICI)” value [14] was 1.

CCCCCCCCCCCCCCCC(CO)NCCCCCCCCCC (stereo unspecified) was tested, and the MIC [11] was 64 µM (≈ 26.4 µg/mL).

CCCCCCCCCCCCCCCC(CNCCCCCC)NC(=O)OC(C)(C)C (stereo unspecified) showed an MIC [11] of 8 µM (≈ 3.64 µg/mL).

Compound CCCCCCCCCCCC(CNCC)NC(=O)OC(C)(C)C (stereo unspecified) has an MIC [11] of 64 µM (≈ 21.9 µg/mL).

CCCCCCCCCCCCCCCCCCCC(COCc1ccccc1)NCC (stereo unspecified) was tested, and the MIC [11] was 16 µM (≈ 7.13 µg/mL).

For CCCCCCCCCCCCCCCC(N)CN (stereo unspecified), the MIC [11] was 390 µM (≈ 105 µg/mL).

Compound CCCCCCCCCCCCCCCCCC(N)CO (stereo unspecified) has an MIC [11] of 8 µM (≈ 2.4 µg/mL).

Work on CCCCCCCCCCCCCCCC(CO)NCC (stereo unspecified) yielded an MIC [11] of 32 µM (≈ 9.59 µg/mL).

For CCCCCCCCCCCCCCCC(N)COCc1ccccc1 (stereo unspecified), the “fractional inhibitory concentration index (FICI)” value [15] was 0.56, the FIC [2] was 0.5 and the FIC [3] was 0.5. The FIC [4] was 0.5, the FIC [5] was 0.5 and the FIC [16] was 0.5. For the same compound, the “fractional inhibitory concentration index (FICI)” value [8] was 1, the “fractional inhibitory concentration index (FICI)” value [9] was 1.5 and the “fractional inhibitory concentration index (FICI)” value [10] was 0.63. The MIC [11] was 4.5 µM (≈ 1.63 µg/mL), the “fractional inhibitory concentration index (FICI)” value [14] was 0.63 and the “fractional inhibitory concentration index (FICI)” value [17] was 0.56.

CCCCCCCCCCCCCCCC(CO)NCCCC (stereo unspecified) gave an MIC [11] of 64 µM (≈ 21 µg/mL).

CCCCc1ccc(CCCCCCCCCC(CO)NC(=O)OC(C)(C)C)cc1 (stereo unspecified) gave an MIC [11] of 16 µM (≈ 6.71 µg/mL).

NNC(=O)c1ccncc1 [ISONIAZID] was tested, and the FIC [18] was 0.5, the FIC [19] was 0.125 and the FIC [20] was 0.125. The MIC [11] was 934 µM and 128 µg/mL.

Compound CCCCCCCCCCCC(CO)NCCCC (stereo unspecified) has an MIC [11] of 32 µM (≈ 8.69 µg/mL).

CCCCCCCCCCCCCCCCCC(N)COCc1ccccc1 (stereo unspecified) gave an MIC [11] of 64 µM (≈ 24.9 µg/mL).

Compound CCCCc1ccc(CCCCCCCCCC(N)CO)cc1 (stereo unspecified) has an MIC [11] of 2 µM (≈ 0.639 µg/mL).

For CCCCCCCCCCCCCCCC(CO)N(CC)CC (stereo unspecified), the MIC [11] was 32 µM (≈ 10.5 µg/mL).

For CCCCCCCCCCCCCCCCCC(COCc1ccccc1)NCCCCCC (stereo unspecified), the MIC [11] was 64 µM (≈ 30.3 µg/mL).

Compound CCCCCCCCCCCCCCCC(CO)N(CCCC)CCCC (stereo unspecified) has an MIC [11] of 8 µM (≈ 3.07 µg/mL).

CCCCCCCCCCCCCCCCCC(CN)NC(=O)OC(C)(C)C (stereo unspecified) was tested, and the MIC [11] was 16 µM (≈ 6.38 µg/mL).

Work on CC[C@@H](CO)NCCN[C@@H](CC)CO [ETHAMBUTOL] yielded an FIC [18] of 0.25, an FIC [19] of 1 and an FIC [20] of 0.25. For the same compound, the MIC [11] was 28.8 µM and 8 µg/mL.

For C[C@H]1COc2c(N3CCN(C)CC3)c(F)cc3c(=O)c(C(=O)O)cn1c23 [LEVOFLOXACIN ANHYDROUS], the FIC [18] was 0.5, the FIC [19] was 0.5 and the FIC [20] was 0.5. For the same compound, the MIC [11] was 5.5 µM and 2 µg/mL.

CCCCCCCCCCCCCCCC(COCc1ccccc1)NCC (stereo unspecified) was tested, and the MIC [11] was 16 µM (≈ 6.23 µg/mL).

CCCCCCCCCCCC(CO)NCC (stereo unspecified) showed an MIC [11] of 64 µM (≈ 15.6 µg/mL).
